Values of other authors as cited in US7393852B2, “Piperazine derivatives and methods of use” (Amgen Inc., priority 2003, dated 2008).
Peptide text beside a SMILES is read from it.

Structure (SMILES): NC(N)=NCCC[C@H](NC(=O)[C@H](Cc1ccccc1)NC(=O)[C@@H]1CCCN1C(=O)[C@H](CO)NC(=O)[C@H](Cc1ccccc1)NC(=O)CNC(=O)[C@@H]1CCCN1C(=O)[C@@H]1CCCN1C(=O)[C@@H](N)CCCN=C(N)N)C(=O)O [BK, Bradykinin] (H-RPPGFSPFR-OH)
- half-life of BK in plasma: approximately 17 seconds
